# Results: patent US9981972B2, “N-hydroxy bicyclic hydantoin carbamates as tools for identification of serine hydrolase targets” (ABIDE THERAPEUTICS, INC., priority 2014, dated 2018)
# Key:
# [1] = target: T1, PPT1 (Mus musculus, UniProt O88531); assay: Inhibition by gel-based competitive ABPP in vivo (Compound 39 probe)
# T1 construct: from tissue; host or cells: central and peripheral tissues (e.g. brain, testis) of C57BL6 mice
# T1 sequence (O88531 28-306): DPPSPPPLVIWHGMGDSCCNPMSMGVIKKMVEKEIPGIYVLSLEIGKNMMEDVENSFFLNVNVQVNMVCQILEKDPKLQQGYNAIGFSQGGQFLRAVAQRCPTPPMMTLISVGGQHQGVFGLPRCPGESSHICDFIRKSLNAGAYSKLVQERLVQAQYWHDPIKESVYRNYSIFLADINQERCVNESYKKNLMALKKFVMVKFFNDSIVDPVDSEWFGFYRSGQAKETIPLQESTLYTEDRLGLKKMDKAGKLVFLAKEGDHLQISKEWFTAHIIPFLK
# Method: Compound 26, Compound 34, and Compound 1 were administered across a dose range of 1-40 mg/kg to C57BL6 mice by intraperitoneal injection, and, after 4 hours, animals were sacrificed and tissues harvested for analysis by gel-based ABPP using the FP-Rh probe and the Compound 39 probe.
# [2] = target: T2, endogenous PPT1 (Homo sapiens, UniProt P50897); assay: PPT1 substrate assay, PC3 cells treated in situ; assay type: cell-based; settings: 4 h in situ; for reduction in 4-MUBO hydrolysis activity versus DMSO: 500 nM inhibitor
# T2 construct: endogenous in cells; host or cells: PC3
# T2 sequence (P50897 28-306): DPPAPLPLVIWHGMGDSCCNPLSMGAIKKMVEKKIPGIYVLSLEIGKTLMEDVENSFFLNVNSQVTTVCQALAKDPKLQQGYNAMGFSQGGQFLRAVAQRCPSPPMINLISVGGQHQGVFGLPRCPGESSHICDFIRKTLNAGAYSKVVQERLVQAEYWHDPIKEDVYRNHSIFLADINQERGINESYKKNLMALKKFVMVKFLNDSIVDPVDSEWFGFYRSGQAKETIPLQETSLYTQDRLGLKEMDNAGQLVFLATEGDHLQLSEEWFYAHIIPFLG
# Method: PPT1 activity was assessed in vitro using a substrate assay adapted from previous studies (van Diggelen et al., Molecular genetics and metabolism 66, 240-244, 1999). Lysates from HEK293T cells transfected with an empty vector, or human PPT1 under a CMV promoter were adjusted to 1 mg/ml in PBS (25 μl), and then combined 1:1 with Mcllvain's phosphate/citrate buffer containing 0.375% (v/v) Triton-X 100 and 15 mM DTT (pH 5.0). This sample was pre-treated with inhibitor or DMSO for 30 minutes at 37° C., and 10 μl (5 μg protein) was used in the substrate assay as follows: Samples were diluted in a black 96-well plate (half-area) with 20 μl McIlvain's phosphate/citrate buffer (pH 5.0) containing 0.375% TX-100 and 15 mM DTT, as well as 0.64 mM MU-6S-Palm-PD-Glc and 0.1 U sweet almond glucosidase (Sigma). The reactions were incubated at 37° C. for 1 hour, quenched with 120 μl sodium bicarbonate buffer (pH 10.0), and hydrolysis by 4-MU fluorescence measured by excitement at […] and emission intensity at […]. 16 μg protein was used for analysis of native PC3 cells.
# (§1) In situ inhibitor treatments of human cell lines were performed as described previously (Hsu et al., J Med Chem 56, 8270-8279, 2012). Briefly, PC3 or transfected HEK293T cells were grown to confluency in serum-containing media (RPMI or DMEM, respectively). The culture media was then removed and replaced with fresh media containing DMSO or inhibitor at the desired concentration and incubated for 4 hours in a tissue culture incubator (37° C., 5% CO2). Cells were then washed with PBS, harvested, washed with PBS once more, and lysed with a probe sonicator.
# Compound 26 was then tested to see if it inhibited PPT1 activity using a substrate assay. […] In this assay, PPT1 hydrolyzes the substrate's palmitoyl thioester bond, and exogenous sweet almond β-glucosidase deglycosylates and frees the fluorophore, 4-methylumbelliferone (4-MU), which is measured to assess PPT1 activity.
# [3] = target: T3, PPT1 (Homo sapiens, UniProt P50897); assay: ABPP-SILAC, PC3 cells treated in situ, Compound 39 probe; assay type: cell-based; set-up: endogenous in cells; host or cells: PC3; settings: 4 h in situ
# T3 sequence (P50897 28-306): T2 sequence (P50897 28-306)
# Method: as §1
# Isotopically heavy- and light-labeled PC3 cells were treated with Compound 37 (1 μM) or DMSO for 4 h, respectively, lysed, and then treated Compound 39 (5 μM, 1 h). […] Accordingly, PPT1 was not detected in our previous ABPP-SILAC studies with FP-biotin (see FIG. 9). […]
# To evaluate the broader selectivity of Compound 26 and Compound 34 across the SH class, heavy and light isotopically-labeled PC3 cells were treated with inhibitor [Compound 34 (1 μM); or Compound 26 (1 or 0.1 μM); 4 h) and DMSO, respectively, followed by ABPP-SILAC analysis with either the FP-biotin probe or the Compound 39 probe. […] Conversely, Compound 34 inhibited >90% of ABHD4 activity, as measured with either the FP-biotin probe or the Compound 39 probe, and cross-reacted with four additional targets—ABHD6, PAFAH2, PLA2G7, and PLA2G15.
compound,measurement,setting,value
"COc1ccc(N2CCN(C(=O)ON3C(=O)C4CN(CC5CCN(Cc6ccccc6)CC5)CCN4C3=O)CC2)cc1 (stereo not drawn) [Compound 26, 7-((1-benzylpiperidin-4-yl)methyl)-1,3-dioxohexahydroimidazo[1,5-a]pyrazin-2(3H)-yl 4-(4-methoxyphenyl)piperazine-1-carboxylate]","mPPT1 (in vivo), % @ 5 mg/kg (testis)","[1]; 5 mg/kg, testis, mouse",100% @ 5 mg/kg
same,blockade of PPT1 in vivo,"[1]; 1-5 mg/kg i.p., 4 h, central and peripheral tissues",near-complete blockade
same,reduction in 4-MUBO hydrolysis activity versus DMSO,[2],substantial reductions
same,reduction in endogenous PPT1 activity,"[2]; 500 nM, MU-6S-Palm-βD-Glc substrate assay",90%
same,inhibition of PPT1 in PC3 cells,"[3]; 1 or 0.1 μM, Compound 39 probe",~90%
"COc1ccc(N2CCN(C(=O)ON3C(=O)C4CN(Cc5ccc(Oc6ccccc6)cc5)CCN4C3=O)CC2)cc1 (stereo not drawn) [Compound 37, 1,3-dioxo-7-(4-phenoxybenzyl)hexahydroimidazo[1,5-a]pyrazin-2(3H)-yl 4-(4-methoxyphenyl)piperazine-1-carboxylate]",inhibition at 1 µM,"[3]; PC-3, 1 μM, Compound 39 probe (5 μM, 1 h)",> 90%
"O=C(ON1C(=O)C2CN(Cc3ccc(Oc4ccccc4)cc3)CCN2C1=O)N1CCOCC1 (stereo not drawn) [Compound 34, 1,3-dioxo-7-(4-phenoxybenzyl)hexahydroimidazo[1,5-a]pyrazin-2(3H)-yl morpholine-4-carboxylate]",reduction in 4-MUBO hydrolysis activity versus DMSO,[2],not
"O=C(ON1C(=O)C2CN(C(=O)N3CCOCC3)CCN2C1=O)N1CCC(CCc2ccc(Cl)cc2)CC1 (stereo not drawn) [Compound 1, 7-(morpholine-4-carbonyl)-1,3-dioxohexahydroimidazo[1,5-a]pyrazin-2(3H)-yl 4-(4-chloro-phenethyl)piperidine-1-carboxylate]","mPPT1 (in vivo), % @ 10 mg/kg (testis)","[1]; 10 mg/kg, testis, mouse",100% @ 10 mg/kg
same,dose inhibiting PPT1 in vivo,"[1]; i.p., 4 h, Compound 39 probe",≥ 10 mg/kg
